In US20120190752A1, “EXO-S-MECAMYLAMINE METHOD, USE, AND COMPOUND FOR TREATMENT” (Targacept Inc., priority 2009, published 2012):

Test system: subjects with major depressive disorder (MDD) who were inadequate responders to citalopram
Experiment: HAMD-17 total score, Phase 2b trial of TC-5214 as add-on to citalopram
Assay type: in vivo, human
Details: for HAMD-17 total score, observed Mean / HAMD-17 total score, observed Median / HAMD-17 Remission (Score ≦7): Subjects with Remission (number) / HAMD-17 Remission (Score ≦7): Subjects with Remission (percentage) / HAMD-17 Remission (Score ≦7): Subjects without Remission (number) / HAMD-17 Remission (Score ≦7): Subjects without Remission (percentage) / HAMD-17 Remission (Score ≦10): Subjects with Remission (number) / HAMD-17 Remission (Score ≦10): Subjects with Remission (percentage) / HAMD-17 Remission (Score ≦10): Subjects without Remission (number) / HAMD-17 Remission (Score ≦10): Subjects without Remission (percentage) / HAMD-17 reduction from baseline ≧50%: Subjects with Response (number) / HAMD-17 reduction from baseline ≧50%: Subjects with Response (percentage) / HAMD-17 reduction from baseline ≧50%: Subjects without Response (number) / HAMD-17 reduction from baseline ≧50%: Subjects without Response (percentage) / HAMD-17 Adjusted Mean change / HAMD-17 Mean Difference between TC-5214 and Placebo: PP; for primary outcome: mean change between TC-5214 and placebo from baseline on HAM-D (HAMD-17 total score): intent to treat, Week 8 to Week 16 LOCF, result in words
Description: The Hamilton Rating Scale for Depression (HRSD), also known as the Hamilton Depression Rating Scale (HDRS) or abbreviated to HAM-D or HAMD, is a multiple choice questionnaire that clinicians may use to rate the severity of a patient's major depression (Hamilton 1967). The questionnaire rates the severity of symptoms observed in depression such as low mood, insomnia, agitation, anxiety and weight loss. The questionnaire is presently one of the most commonly used scales for rating depression in medical research. The clinician chooses the possible responses to each question by interviewing the patient and by observing the patient's symptoms. Each question has multiple possible responses which increase in severity. Although Hamilton's original scale had 17 questions, others later developed HRSD scales with different numbers of questions, the greatest of which is 29 (HRSD-29). Clinicians can use the HRSD in place of, or in conjunction with, the Montgomery-Åsberg Depression Rating Scale (MADRS), the Beck Depression Inventory (BDI), the Zung Self-Rating Depression Scale, the Wechsler Depression Rating Scale, the […] Depression Rating Scale, the Inventory of Depressive Symptomatology (IDS), the Quick Inventory of Depressive Symptomatology (QIDS), and other questionnaires. […] The results on all of the trial's secondary efficacy measures, including assessments of depression, irritability, disability, cognition, severity of illness and global improvement, were also statistically significant in favor of TC-5214 on an intent to treat basis. The Phase 2b trial of TC-5214 as an augmentation treatment for MDD was a two-phase trial conducted at 20 sites in India and three sites in the United States. In the first phase, 579 subjects with MDD received first-line treatment with citalopram hydrobromide for eight weeks, 20 mg daily for the first four weeks and 40 mg daily for the next four weeks. Citalopram, an approved treatment for MDD marketed in the United States as […]®, is from the drug class known as selective serotonin reuptake inhibitors. At the end of the eight weeks, subjects whose MADRS score had improved less than 50 percent and whose CGI-SI score was no lower than 4 were considered partial or non responders and randomized into the double blind second phase of the trial. In the double blind second phase, subjects continued their citalopram treatment and also received either add-on TC-5214 or add-on placebo for an additional eight weeks. The daily dosage of TC-5214 was initially 2 mg and could be increased at the discretion of the investigator to 4 mg and to 8 mg based on tolerability and therapeutic response. The primary outcome measure for the trial was mean change between TC-5214 and placebo from double blind baseline as measured by HAM-D at week 16. The intent to treat dataset included 265 subjects in the second phase. In more detail, a multi-center double-blind, randomized, placebo-controlled, parallel group, flexible dose titration study of TC-5214 as adjunctive therapy in subjects with major depressive disorder (MDD) who were inadequate responders to citalopram was conducted in centers in the US and India. The study consisted of a screening period, baseline/washout period, open-label phase, double-blind phase, and a follow-up visit. Subject participation in the study could continue for up to 16 weeks of treatment. Following a washout period of up to 28 days for other antidepressants, subjects with MDD and a MADRS total score >/=28 and a Clinical Global Impression-Severity (CGI-S) score >/=4 were enrolled on Day 1 into an open-label citalopram-only phase of the study. This phase lasted 8 weeks, with citalopram (CIT) dose increased from a once-daily dose of 20 mg (Day 1 through Week 4) to 40 mg (Week 4 through Week 8). A total of 579 subjects entered the open-label citalopram phase. […]

[1] = Double Blind Week 8 (Baseline), before TC-5214
[2] = Double Blind Week 16 LOCF (change from Week 8)
[3] = Double Blind Week 18 (Follow-up)
[4] = Double Blind Week 18 LOCF (Follow-up)
[5] = Double Blind Week 18 LOCF (Follow-up), change from Week 16

## CNC1(C)C2CCC(C2)C1(C)C (stereo in doubt) [TC-5214, (S)—N,2,3,3-tetramethylnorbornan-2-amine]
ITT, change from Week 8 (double-blind baseline) to Week 16 LOCF, add-on to citalopram
  HAMD-17 Adj. Mean change: −13.75
ITT, week of double-blind treatment
  onset of separation from placebo, remission rates HAMD≦7 (FIG. 1): ≤ 2 week
[1]
  HAMD-17 total score, observed Mean: 23.7
  HAMD-17 total score, observed Median: 24.0
Double Blind Week 9
  HAMD-17 Remission (Score ≦7): Subjects with Remission (number): 1
  HAMD-17 Remission (Score ≦7): Subjects with Remission (percentage): (1%)
  HAMD-17 Remission (Score ≦7): Subjects without Remission (number): 112
  HAMD-17 Remission (Score ≦7): Subjects without Remission (percentage): (99%)
  HAMD-17 Remission (Score ≦10): Subjects with Remission (number): 3
  HAMD-17 Remission (Score ≦10): Subjects with Remission (percentage): (3%)
  HAMD-17 Remission (Score ≦10): Subjects without Remission (number): 110
  HAMD-17 Remission (Score ≦10): Subjects without Remission (percentage): (97%)
  HAMD-17 reduction from baseline ≧50%: Subjects with Response (number): 3
  HAMD-17 reduction from baseline ≧50%: Subjects with Response (percentage): (3%)
  HAMD-17 reduction from baseline ≧50%: Subjects without Response (number): 110
  HAMD-17 reduction from baseline ≧50%: Subjects without Response (percentage): (97%)
Double Blind Week 10
  HAMD-17 Remission (Score ≦7): Subjects with Remission (number): 4
  HAMD-17 Remission (Score ≦7): Subjects with Remission (percentage): (4%)
  HAMD-17 Remission (Score ≦7): Subjects without Remission (number): 109
  HAMD-17 Remission (Score ≦7): Subjects without Remission (percentage): (96%)
  HAMD-17 Remission (Score ≦10): Subjects with Remission (number): 16
  HAMD-17 Remission (Score ≦10): Subjects with Remission (percentage): (14%)
  HAMD-17 Remission (Score ≦10): Subjects without Remission (number): 97
  HAMD-17 Remission (Score ≦10): Subjects without Remission (percentage): (86%)
  HAMD-17 reduction from baseline ≧50%: Subjects with Response (number): 20
  HAMD-17 reduction from baseline ≧50%: Subjects with Response (percentage): (18%)
  HAMD-17 reduction from baseline ≧50%: Subjects without Response (number): 93
  HAMD-17 reduction from baseline ≧50%: Subjects without Response (percentage): (82%)
Double Blind Week 12
  HAMD-17 Remission (Score ≦7): Subjects with Remission (number): 16
  HAMD-17 Remission (Score ≦7): Subjects with Remission (percentage): (14%)
  HAMD-17 Remission (Score ≦7): Subjects without Remission (number): 97
  HAMD-17 Remission (Score ≦7): Subjects without Remission (percentage): (86%)
  HAMD-17 Remission (Score ≦10): Subjects with Remission (number): 36
  HAMD-17 Remission (Score ≦10): Subjects with Remission (percentage): (32%)
  HAMD-17 Remission (Score ≦10): Subjects without Remission (number): 77
  HAMD-17 Remission (Score ≦10): Subjects without Remission (percentage): (68%)
  HAMD-17 reduction from baseline ≧50%: Subjects with Response (number): 40
  HAMD-17 reduction from baseline ≧50%: Subjects with Response (percentage): (35%)
  HAMD-17 reduction from baseline ≧50%: Subjects without Response (number): 73
  HAMD-17 reduction from baseline ≧50%: Subjects without Response (percentage): (65%)
Double Blind Week 14
  HAMD-17 Remission (Score ≦7): Subjects with Remission (number): 35
  HAMD-17 Remission (Score ≦7): Subjects with Remission (percentage): (31%)
  HAMD-17 Remission (Score ≦7): Subjects without Remission (number): 78
  HAMD-17 Remission (Score ≦7): Subjects without Remission (percentage): (69%)
  HAMD-17 Remission (Score ≦10): Subjects with Remission (number): 53
  HAMD-17 Remission (Score ≦10): Subjects with Remission (percentage): (47%)
  HAMD-17 Remission (Score ≦10): Subjects without Remission (number): 60
  HAMD-17 Remission (Score ≦10): Subjects without Remission (percentage): (53%)
  HAMD-17 reduction from baseline ≧50%: Subjects with Response (number): 67
  HAMD-17 reduction from baseline ≧50%: Subjects with Response (percentage): (59%)
  HAMD-17 reduction from baseline ≧50%: Subjects without Response (number): 46
  HAMD-17 reduction from baseline ≧50%: Subjects without Response (percentage): (41%)
Double Blind Week 16
  HAMD-17 Remission (Score ≦7): Subjects with Remission (number): 50
  HAMD-17 Remission (Score ≦7): Subjects with Remission (percentage): (44%)
  HAMD-17 Remission (Score ≦7): Subjects without Remission (number): 63
  HAMD-17 Remission (Score ≦7): Subjects without Remission (percentage): (56%)
  HAMD-17 Remission (Score ≦10): Subjects with Remission (number): 75
  HAMD-17 Remission (Score ≦10): Subjects with Remission (percentage): (66%)
  HAMD-17 Remission (Score ≦10): Subjects without Remission (number): 38
  HAMD-17 Remission (Score ≦10): Subjects without Remission (percentage): (34%)
  HAMD-17 reduction from baseline ≧50%: Subjects with Response (number): 84
  HAMD-17 reduction from baseline ≧50%: Subjects with Response (percentage): (74%)
  HAMD-17 reduction from baseline ≧50%: Subjects without Response (number): 29
  HAMD-17 reduction from baseline ≧50%: Subjects without Response (percentage): (26%)
Double Blind Week 16 LOCF
  HAMD-17 total score, observed Mean: 9.1
  HAMD-17 total score, observed Median: 8.0
[2]
  HAMD-17 Adjusted Mean change: −14.64
  HAMD-17 Mean Difference between TC-5214 and Placebo: 6.10
[3]
  HAMD-17 Remission (Score ≦7): Subjects with Remission (number): 58
  HAMD-17 Remission (Score ≦7): Subjects with Remission (percentage): (51%)
  HAMD-17 Remission (Score ≦7): Subjects without Remission (number): 55
  HAMD-17 Remission (Score ≦7): Subjects without Remission (percentage): (49%)
  HAMD-17 Remission (Score ≦10): Subjects with Remission (number): 77
  HAMD-17 Remission (Score ≦10): Subjects with Remission (percentage): (68%)
  HAMD-17 Remission (Score ≦10): Subjects without Remission (number): 36
  HAMD-17 Remission (Score ≦10): Subjects without Remission (percentage): (32%)
  HAMD-17 reduction from baseline ≧50%: Subjects with Response (number): 83
  HAMD-17 reduction from baseline ≧50%: Subjects with Response (percentage): (73%)
  HAMD-17 reduction from baseline ≧50%: Subjects without Response (number): 30
  HAMD-17 reduction from baseline ≧50%: Subjects without Response (percentage): (27%)
[4]
  HAMD-17 total score, observed Mean: 8.6
  HAMD-17 total score, observed Median: 7.0
[5]
  HAMD-17 Adjusted Mean change: −0.83
  HAMD-17 Mean Difference between TC-5214 and Placebo: −0.01
  primary outcome: mean change between TC-5214 and placebo from baseline on HAM-D (HAMD-17 total score): highly statistically significant in favor of TC-5214
Listed as TC-5214-23
  primary outcome: mean change between TC-5214 and placebo from baseline on HAM-D (HAMD-17 total score): statistically significant favoring TC-5214-23
